From ChEMBL document CHEMBL1201862, “PubChem BioAssay data set” (2004)
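These data come from cells grown in 96-well plates and exposed to compound for 48 hours at five concentrations. GI50 is the concentration that inhibits growth by half.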 Activity calls are given as the source filed them. No stated cut-off is given here; in the data, active = GI50 up to about 1.1 µM and inactive = higher.

Tests used:
Assay in all cases: NCI-60 cell line screen, 48 h
NCI-H23 = system: NCI-H23
SF-295 = system: SF-295
HOP-92 = system: HOP-92
M14 = system: M14
SW-620 = system: SW-620
U-251 = system: U-251
DLD-1 = system: DLD-1
OVCAR-5 = system: OVCAR-5
MOLT-4 = system: MOLT-4
SK-MEL-28 = system: SK-MEL-28
NCI-H226 = system: NCI-H226
SNB-19 = system: SNB-19
SNB-75 = system: SNB-75
DU-145 = system: DU-145
MCF7 = system: MCF7
BT-549 = system: BT-549
T47D = system: T47D
Hs-578T = system: Hs-578T
MDA-MB-435 = system: MDA-MB-435
RXF 393 = system: RXF 393

Row | Structure (SMILES) | GI50 (NCI-H23) | GI50 (SF-295) | GI50 (HOP-92) | GI50 (M14) | GI50 (SW-620) | GI50 (U-251) | GI50 (DLD-1) | GI50 (OVCAR-5) | GI50 (MOLT-4) | GI50 (SK-MEL-28) | GI50 (NCI-H226) | GI50 (SNB-19) | GI50 (SNB-75) | GI50 (DU-145) | GI50 (MCF7) | GI50 (BT-549) | GI50 (T47D) | GI50 (Hs-578T) | GI50 (MDA-MB-435) | GI50 (RXF 393)
1 | CN/N=C(/CC(=O)c1sc(NNC(C)=O)nc1C)C(=O)Nc1ccc(OC)cc1OC | > 100 µM (inactive) | > 100 µM (inactive) | > 100 µM (inactive) | > 100 µM (inactive) | > 100 µM (inactive) | > 100 µM (inactive) | > 100 µM (inactive) | > 100 µM (inactive) | > 100 µM (inactive) | > 100 µM (inactive) | > 100 µM (inactive) | > 100 µM (inactive) |  |  |  |  |  |  |  | 
2 | Cc1n[nH]c(=O)n1-n1cccc1 | > 100 µM (inactive) | > 100 µM (inactive) | > 100 µM (inactive) | > 100 µM (inactive) | > 100 µM (inactive) | > 100 µM (inactive) |  | > 100 µM (inactive) | > 100 µM (inactive) | > 100 µM (inactive) | > 100 µM (inactive) | > 100 µM (inactive) | > 100 µM (inactive) | > 100 µM (inactive) | > 100 µM (inactive) | > 100 µM (inactive) | > 100 µM (inactive) | > 100 µM (inactive) | > 100 µM (inactive) | > 100 µM (inactive)
3 | CCOC(=O)NC(Nc1ccc(F)c(F)c1)(C(=O)OCC)C(F)(F)F (configuration not stated) | > 100 µM (inactive) | 74 µM (inactive) | > 100 µM (inactive) | 0.826 µM (active) | 17.4 µM (inactive) | > 100 µM (inactive) |  | > 100 µM (inactive) | > 100 µM (inactive) | > 100 µM (inactive) | > 100 µM (inactive) | > 100 µM (inactive) | 98.9 µM (inactive) | > 62.8 µM (inactive) | > 100 µM (inactive) | > 100 µM (inactive) | 18.2 µM (inactive) | > 25.9 µM (inactive) | 5.69 µM (inactive) | > 100 µM (inactive)
4 | CCCC(=O)Nc1cc(/C=C/C(=O)N2C[C@H]3C[C@@]34C2=CC(=O)c2[nH]cc(C)c24)n(C)c1 | < 0.0025 µM (active) | < 0.0025 µM (active) | < 0.0025 µM (active) | < 0.0025 µM (active) | < 0.0025 µM (active) | < 0.0025 µM (active) |  | < 0.0025 µM (active) | < 0.0025 µM (active) | < 0.0025 µM (active) | < 0.0025 µM (active) | 0.00593 µM (active) | < 0.0025 µM (active) | < 0.0025 µM (active) | < 0.0025 µM (active) | < 0.0025 µM (active) | < 0.0025 µM (active) | 0.00273 µM (active) | < 0.0025 µM (active) | < 0.0025 µM (active)
5 | CSc1ncc2c(C#N)c3sc4ccccc4n3c(=O)c2n1 | > 100 µM (inactive) | > 100 µM (inactive) | > 100 µM (inactive) | > 100 µM (inactive) | 22 µM (inactive) | 24 µM (inactive) |  | > 100 µM (inactive) | > 100 µM (inactive) | > 100 µM (inactive) | 26.1 µM (inactive) | 37.8 µM (inactive) | 43.5 µM (inactive) | > 100 µM (inactive) | 16.8 µM (inactive) | > 100 µM (inactive) | 91.8 µM (inactive) | 24.6 µM (inactive) | > 100 µM (inactive) | > 100 µM (inactive)
6 | COC(=O)C(Cc1ccccc1)NC(=O)CCCNC(=O)OCc1ccccc1 (configuration not stated) | > 100 µM (inactive) | > 100 µM (inactive) | 99.1 µM (inactive) | 17.1 µM (inactive) | > 100 µM (inactive) | > 100 µM (inactive) |  | > 100 µM (inactive) | 29.2 µM (inactive) | 48.2 µM (inactive) | > 100 µM (inactive) | > 100 µM (inactive) | > 100 µM (inactive) | > 100 µM (inactive) | > 100 µM (inactive) | > 100 µM (inactive) | 71.3 µM (inactive) | > 100 µM (inactive) | 86.1 µM (inactive) | < 0.01 µM (active)
